Measured values as given in patent publication US7855290B2, “Pyridine derivatives and pyrimidine derivatives (3)” (Eisai R&D Management Co., Ltd., priority 2005, dated 2010).

Key:
[1] = system: Human gastric cancer cells (MKN-45); test: Inhibitory activity against the proliferation of human gastric cancer cells (MKN-45); format: cell-based; conditions: 72 h, MKN-45, 1% FBS RPMI1640, 3 days, Cell Counting Kit-8
Summary of the method: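 MKN-45 cells seeded overnight in RPMI1640 with 1% FBS, then exposed to compound for 3 days at 37° C, 5% CO2. Viability read with CCK-8 after about 1.5 hrs, absorbance at 450 nm (reference 660 nm).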

HGFR = molecular target: T1, HGFR (Homo sapiens, UniProt P08581); test: Inhibitory activity against the HGFR autophosphorylation using ELISA (MKN-45 cells); format: cell-based; conditions: 1 hr with test substance
T1 construct: endogenous in cells; host or cells: MKN-45 human gastric cancer cells
Summary of the method: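 MKN-45 gastric cancer cells, plated overnight in 1% FBS RPMI1640, treated with compound 1 h at 37° C and lysed. Lysate captured on anti-phosphotyrosine (PY20) plates, probed with anti-HGFR then HRP anti-rabbit IgG; TMB absorbance at 450 nm. Activity expressed as % of untreated extract (100%) versus lysis buffer blank (0%).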

T1 sequence (P08581 25-1390): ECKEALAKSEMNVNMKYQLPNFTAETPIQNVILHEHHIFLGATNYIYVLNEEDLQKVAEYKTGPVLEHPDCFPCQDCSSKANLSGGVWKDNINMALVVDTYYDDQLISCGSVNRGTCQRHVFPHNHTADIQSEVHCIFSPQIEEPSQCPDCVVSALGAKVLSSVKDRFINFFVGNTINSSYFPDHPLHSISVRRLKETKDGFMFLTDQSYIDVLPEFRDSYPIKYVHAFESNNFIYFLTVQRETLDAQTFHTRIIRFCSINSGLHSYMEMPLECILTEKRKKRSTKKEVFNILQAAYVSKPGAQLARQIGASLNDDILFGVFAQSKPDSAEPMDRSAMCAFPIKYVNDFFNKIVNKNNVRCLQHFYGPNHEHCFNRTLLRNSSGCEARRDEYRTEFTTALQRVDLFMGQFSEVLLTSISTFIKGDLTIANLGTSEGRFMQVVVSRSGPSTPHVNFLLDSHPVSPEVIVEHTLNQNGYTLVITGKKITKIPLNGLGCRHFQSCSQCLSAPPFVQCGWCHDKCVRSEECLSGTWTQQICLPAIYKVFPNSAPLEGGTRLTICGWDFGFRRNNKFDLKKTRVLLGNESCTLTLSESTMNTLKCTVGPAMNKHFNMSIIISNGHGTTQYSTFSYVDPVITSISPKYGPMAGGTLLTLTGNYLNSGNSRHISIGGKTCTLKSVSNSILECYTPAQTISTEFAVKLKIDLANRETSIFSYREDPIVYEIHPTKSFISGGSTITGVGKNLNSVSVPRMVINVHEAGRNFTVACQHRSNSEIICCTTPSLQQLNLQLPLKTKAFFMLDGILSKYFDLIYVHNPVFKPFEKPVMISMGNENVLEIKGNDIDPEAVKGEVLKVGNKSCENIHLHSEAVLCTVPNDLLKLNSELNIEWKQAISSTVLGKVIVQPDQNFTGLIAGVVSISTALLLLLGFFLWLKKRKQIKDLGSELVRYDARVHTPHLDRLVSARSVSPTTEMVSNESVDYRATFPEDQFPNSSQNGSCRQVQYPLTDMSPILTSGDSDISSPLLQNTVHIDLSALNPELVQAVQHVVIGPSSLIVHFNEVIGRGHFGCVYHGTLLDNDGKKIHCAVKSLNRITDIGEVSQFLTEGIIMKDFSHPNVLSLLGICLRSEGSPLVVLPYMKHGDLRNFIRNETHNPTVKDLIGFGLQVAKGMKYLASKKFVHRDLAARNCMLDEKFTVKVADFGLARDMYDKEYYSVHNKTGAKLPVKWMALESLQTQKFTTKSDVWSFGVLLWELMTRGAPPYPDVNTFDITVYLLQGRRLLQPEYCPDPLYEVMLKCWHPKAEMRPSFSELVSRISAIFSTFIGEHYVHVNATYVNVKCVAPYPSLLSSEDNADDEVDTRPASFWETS

Row | Compound | IC50 [1] | IC50 (HGFR)
1 | O=C(Nc1cc(Oc2ccc(NC(=O)C3(C(=O)Nc4ccc(F)cc4)CC3)cc2F)ccn1)N1CCC(CO)CC1 [Example 85, N-(3-Fluoro-4-{[2-({[-4-(hydroxymethyl)piperidin-1-yl]carbonyl}amino)pyridin-4-yl]oxy}phenyl)-N′-(4-fluorophenyl)cyclopropane-1,1-dicarboxamide] | 15 nM | 14 nM
2 | O=C(Nc1cc(Oc2ccc(NC(=O)C3(C(=O)Nc4ccc(F)cc4)CC3)c(F)c2)ccn1)N1CC[C@H](O)C1 [Example 89, N-(2-Fluoro-4-{[2-({[(3S)-3-hydroxypyrrolidin-1-yl]carbonyl}amino)pyridin-4-yl]oxy}phenyl)-N′-(4-fluorophenyl)cyclopropane-1,1-dicarboxamide] | 18 nM | 17 nM
3 | O=C(Nc1cc(Oc2ccc(NC(=O)C3(C(=O)Nc4ccc(F)cc4)CC3)cc2F)ccn1)N1CC[C@H](O)C1 [Example 88, N-(3-Fluoro-4-{[2-({[(3S)-3-hydroxypyrrolidin-1-yl]carbonyl}amino)pyridin-4-yl]oxy}phenyl)-N′-(4-fluorophenyl)cyclopropane-1,1-dicarboxamide] | 18 nM | 20 nM
4 | CN(C)CC1CN(C(=O)Nc2cc(Oc3cc(F)c(NC(=O)C4(C(=O)Nc5ccc(F)cc5)CC4)cc3F)ccn2)C1 [Example 93, N-[2,5-Difluoro-4-({2-[({3-[(dimethylamino)methyl]azetidin-1-yl]carbonyl)amino]pyridin-4-yl}oxy)phenyl]-N′-(4-fluorophenyl)cyclopropane-1,1-dicarboxamide] | 5.2 nM | 7 nM
5 | O=C(Nc1cc(Oc2ccc(NC(=O)C3(C(=O)Nc4ccc(F)cc4)CC3)c(F)c2)ccn1)N1CC[C@@H](O)C1 [Example 87, N-(2-Fluoro-4-{[2-({[(3R)-3-hydroxypyrrolidin-1-yl]carbonyl}amino)pyridin-4-yl]oxy}phenyl)-N′-(4-fluorophenyl)cyclopropane-1,1-dicarboxamide] | 14 nM | 12 nM
6 | O=C(Nc1cc(Oc2cc(F)c(NC(=O)C3(C(=O)Nc4ccc(F)cc4)CC3)cc2F)ncn1)N1CC(O)C1 [Example 97, N-{2,5-Difluoro-4-[(4-{[(3-hydroxyazetidin-1-yl)carbonyl]amino}pyrimidin-6-yl)oxy]phenyl}-N′-(4-fluorophenyl)cyclopropane-1,1-dicarboxamide] | 38 nM | 14 nM
7 | CN1CCN(C2CCN(C(=O)Nc3cc(Oc4cc(F)c(NC(=O)C5(C(=O)Nc6ccc(F)cc6)CC5)cc4F)ccn3)CC2)CC1 [Example 92, N-(2,5-Difluoro-4-{[2-({[4-(4-methylpiperazin-1-yl)piperidin-1-yl]carbonyl}amino)pyridin-4-yl]oxy}phenyl)-N′-(4-fluorophenyl)cyclopropane-1,1-dicarboxamide] | 4.9 nM | 13 nM
8 | O=C(Nc1cc(Oc2ccc(NC(=O)C3(C(=O)Nc4ccc(F)cc4)CC3)c(F)c2)ccn1)N1CCC(CO)CC1 [Example 83, N-(2-Fluoro-4-{[2-({[4-(hydroxymethyl)piperidin-1-yl]carbonyl}amino)pyridin-4-yl]oxy}phenyl)-N′-(4-fluorophenyl)cyclopropane-1,1-dicarboxamide] | 16 nM | 18 nM
9 | O=C(Nc1cc(Oc2ccc(NC(=O)C3(C(=O)Nc4ccc(F)cc4)CC3)cc2F)ccn1)N1CC(CO)C1 [Example 81, N-(3-Fluoro-4-{[2-({[3-(hydroxymethyl)azetidin-1-yl]carbonyl}amino)pyridin-4-yl]oxy}phenyl)-N′-(4-fluorophenyl)cyclopropane-1,1-dicarboxamide] | 17 nM | 7 nM
10 | O=C(Nc1cc(Oc2ccc(NC(=O)C3(C(=O)Nc4ccc(F)cc4)CC3)c(F)c2)ccn1)N1CCC(O)CC1 [Example 82, N-[2-Fluoro-4-[(2-{[(4-hydroxypiperidin-1-yl)carbonyl]amino}pyridin-4-yl)oxy]phenyl}-N′-(4-fluorophenyl)cyclopropane-1,1-dicarboxamide] | 21 nM | 22 nM
11 | CN(C)CC1CN(C(=O)Nc2cc(Oc3cc(F)c(NC(=O)C4(C(=O)Nc5ccc(F)cc5)CC4)cc3F)ncn2)C1 [Example 98, N-[4-({4-[({3-[(Dimethylamino)methyl]azetidin-1-yl}carbonyl)amino]pyrimidin-6-yl}oxy)-2,5-difluorophenyl]-N′-(4-fluorophenyl)cyclopropane-1,1-dicarboxamide] | 23 nM | 17 nM
12 | O=C(Nc1cc(Oc2ccc(NC(=O)C3(C(=O)Nc4ccc(F)cc4)CC3)cc2F)ccn1)N1CC[C@@H](O)C1 [Example 86, N-(3-Fluoro-4-{[2-({[(3R)-3-hydroxypyrrolidin-1-yl]carbonyl}amino)pyridin-4-yl]oxy}phenyl)-N′-(4-fluorophenyl)cyclopropane-1,1-dicarboxamide] | 15 nM | 11 nM
13 | CN(C)CC1CCN(C(=O)Nc2cc(Oc3ccc(NC(=O)C4(C(=O)Nc5ccc(F)cc5)CC4)cc3F)ccn2)CC1 [Example 5, N-[4-({2-[({4-[(Dimethylamino)methyl]piperidin-1-yl}carbonyl)amino]pyridin-4-yl}oxy)-3-fluorophenyl]-N′-(4-fluorophenyl)cyclopropane-1,1-dicarboxamide] | 19 nM | 22 nM
14 | O=C(Nc1cc(Oc2cc(F)c(NC(=O)C3(C(=O)Nc4ccc(F)cc4)CC3)cc2F)ccn1)N1CC(CN2CCC2)C1 [Example 95, N-{4-[(2-{[3-(Azetidin-1-ylmethyl)azetidin-1-ylcarbonyl]amino}pyridin-4-yl)oxy]-2,5-difluorophenyl}-N′-(4-fluorophenyl)cyclopropane-1,1-dicarboxamide] | 5.4 nM | 13 nM
15 | O=C(Nc1cc(Oc2cc(F)c(NC(=O)C3(C(=O)Nc4ccc(F)cc4)CC3)cc2F)ccn1)N1CCC1 [Example 90, N-[4-({2-[(Azetidin-1-ylcarbonyl)amino]pyridin-4-yl}oxy)-2,5-difluorophenyl]-N′-(4-fluorophenyl)cyclopropane-1,1-dicarboxamide] | 5 nM | 11 nM
16 | O=C(Nc1cc(Oc2cc(F)c(NC(=O)C3(C(=O)Nc4ccc(F)cc4)CC3)cc2F)ccn1)N1CC(CO)C1 [Example 96, N-(2,5-Difluoro-4-{[2-({[3-(hydroxymethyl)azetidin-1-yl]carbonyl}amino)pyridin-4-yl]oxy}phenyl)-N′-(4-fluorophenyl)cyclopropane-1,1-dicarboxamide] | 3.8 nM | 4.2 nM
17 | O=C(Nc1cc(Oc2ccc(NC(=O)C3(C(=O)Nc4ccc(F)cc4)CC3)cc2F)ccn1)N1CCC(O)CC1 [Example 84, N-[3-Fluoro-4-[(2-{[(4-hydroxypiperidin-1-yl)carbonyl]amino}pyridin-4-yl)oxy]phenyl}-N′-(4-fluorophenyl)cyclopropane-1,1-dicarboxamide] | 19 nM | 17 nM
